Data reported in the supplement of paper PMC10307832.

Columns and labels:
Assay in all cases: relative viability (nuclei count vs DMSO), 5 days (fraction); higher = more cells survive
MIM1 = compound: CC1=CSC(=NC2CCCCC2)N1/N=C/C3=C(C(=C(C=C3)O)O)O [MIM1]
Procedure, shortened: (§1)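 Viability here means nuclei in treated wells divided by nuclei in vehicle wells, reported as the median across plates. Only plates with control CV below 25% and at least one doubling passed. Lung cancer cell lines in 1536-well plates were exposed to five √10-spaced library-drug doses for 5 days and counted from 4× Hoechst images in MetaXpress.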

Lenalidomide = compound: Nc1cccc2c1CN(C1CCC(=O)NC1=O)C2=O [Lenalidomide]
Procedure, shortened: as §1

Luminespib = compound: CCNC(=O)c1noc(-c2cc(C(C)C)c(O)cc2O)c1-c1ccc(CN2CCOCC2)cc1 [Luminespib]
Procedure, shortened: as §1

Nilotinib = compound: Cc1cn(-c2cc(NC(=O)c3ccc(C)c(Nc4nccc(-c5cccnc5)n4)c3)cc(C(F)(F)F)c2)cn1 [Nilotinib]
Procedure, shortened: as §1

Saracatinib = compound: CN1CCN(CCOc2cc(OC3CCOCC3)c3c(Nc4c(Cl)ccc5c4OCO5)ncnc3c2)CC1 [Saracatinib]
Procedure, shortened: as §1

Cell Line	relative viability (MIM1; 0.2 µM)	relative viability (MIM1; 0.6325 µM)	relative viability (MIM1; 2 µM)	relative viability (MIM1; 6.325 µM)	relative viability (MIM1; 20 µM)	relative viability (Lenalidomide; 0.253 µM)	relative viability (Lenalidomide; 0.8 µM)	relative viability (Lenalidomide; 2.53 µM)	relative viability (Lenalidomide; 8 µM)	relative viability (Luminespib; 0.002 µM)	relative viability (Luminespib; 0.006325 µM)	relative viability (Luminespib; 0.01 µM, anchor plate)	relative viability (Luminespib; 0.02 µM)	relative viability (Luminespib; 0.06325 µM)	relative viability (Luminespib; 0.2 µM)	relative viability (Nilotinib; 0.001 µM)	relative viability (Nilotinib; 0.003162 µM)	relative viability (Nilotinib; 0.01 µM)	relative viability (Nilotinib; 0.03162 µM)	relative viability (Nilotinib; 0.1 µM)	relative viability (Saracatinib; 0.02 µM)	relative viability (Saracatinib; 0.2 µM)	relative viability (Saracatinib; 0.6325 µM)	relative viability (Saracatinib; 2 µM)
NCI-H838	0.967	0.959	0.786	0.78	0.372	0.969	0.879	1.07	0.823	0.983	0.92	0.298	0.554	0.177	0.186	0.924	1.02	1.06	0.863	0.992	0.96	0.897	0.898	0.772
NCI-H1299	0.983	0.992	0.994	1.01	0.776	1.02	0.97	1.03	1.05	1.03	0.95	–	1.04	0.942	0.217	0.939	1.08	1.15	1.02	0.966	1.02	0.948	1.05	1
NCI-H1355	1	0.824	1.07	0.816	0.595	1	0.746	1.02	0.721	0.953	0.956	0.746	0.52	0.67	0.166	0.96	1.21	1.13	1.01	0.428	1.02	0.972	1.03	0.975
NCI-H1395	0.961	0.791	0.873	0.675	0.345	0.997	–	1.02	0.846	1.07	0.861	0.764	0.622	0.362	0.323	0.957	0.7	0.874	0.803	0.542	0.994	0.828	0.91	0.799
NCI-H1437	0.956	0.927	1	0.714	0.273	1.02	0.939	1.05	1.01	0.977	0.943	1.12	1.02	0.743	0.26	0.955	0.988	1.12	0.868	0.958	1.02	1.02	1.04	0.971
NCI-H1563	1.09	1.02	0.993	0.903	0.542	0.932	1.01	1.11	0.846	0.984	0.985	0.508	0.794	0.503	0.49	0.956	1.03	0.971	0.869	1.02	1.04	0.894	0.804	0.728
NCI-H1623	0.922	0.965	1.03	0.945	0.46	1.08	0.932	1.05	0.869	1.02	0.959	0.529	0.712	0.716	0.302	1.1	0.885	1.08	0.889	0.927	0.993	0.852	1.11	0.67
NCI-H1648	1.01	0.929	0.989	0.635	0.283	0.93	0.732	1.29	0.705	0.671	0.811	–	0.837	0.742	0.413	0.79	0.738	0.829	0.605	0.757	0.895	0.553	1.52	0.727
NCI-H1650	0.908	0.949	0.654	0.189	0.148	0.828	0.857	1.23	1.12	1.02	0.823	0.199	0.228	0.122	0.138	0.912	1.22	1.12	0.931	0.598	0.814	0.689	0.737	0.581
NCI-H1651	0.983	0.959	0.932	0.896	0.799	0.972	0.984	1.14	0.904	0.979	0.934	0.86	0.818	0.738	0.351	0.94	1.09	1.14	0.905	0.676	1	0.887	1.07	0.937
NCI-H1666	1.03	0.966	0.945	0.802	0.564	1.02	0.745	1.1	1.05	1.05	0.937	1.03	1.01	0.956	0.838	0.934	0.989	1.06	0.918	1.01	1.02	0.942	1.27	1.17
NCI-H1703	0.897	1	0.878	0.205	0.133	0.991	0.923	1.01	0.904	1.12	0.899	–	0.708	0.134	0.14	0.795	0.684	0.538	0.286	–	0.93	0.772	0.448	0.326
NCI-H1734	1.02	0.871	0.953	0.476	0.182	1.01	1.07	1.09	0.798	0.999	0.902	0.198	0.634	0.159	0.15	0.918	1.14	1.21	0.687	0.402	1.06	–	0.86	0.783
NCI-H1755	1	0.956	1.01	0.816	0.308	0.976	0.986	1.07	0.879	0.996	0.987	0.355	0.979	0.818	0.225	0.974	1.08	1.03	0.832	0.828	0.953	0.859	0.957	0.88
